Reference: patent US5246935A, “Piperazinyl derivatives and methods of treating central nervous system ailments relating to the 5-HT2 receptor system” (Novo Nordisk A/S, priority 1990, dated 1993)
Counter-ions that a name gives are not always drawn.

Legend:
[1] = target: T1, 5HT1A receptor (Rattus norvegicus, UniProt P19327); test: In-Vitro inhibition of 5HT1A receptor binding (3H-8-OH-DPAT); design: species or system rat (male Wistar); settings: 3H-8-OH-DPAT 1 nM, rat frontal cortex and hippocampus, 37° C., 10 min
T1 sequence (P19327 1-422): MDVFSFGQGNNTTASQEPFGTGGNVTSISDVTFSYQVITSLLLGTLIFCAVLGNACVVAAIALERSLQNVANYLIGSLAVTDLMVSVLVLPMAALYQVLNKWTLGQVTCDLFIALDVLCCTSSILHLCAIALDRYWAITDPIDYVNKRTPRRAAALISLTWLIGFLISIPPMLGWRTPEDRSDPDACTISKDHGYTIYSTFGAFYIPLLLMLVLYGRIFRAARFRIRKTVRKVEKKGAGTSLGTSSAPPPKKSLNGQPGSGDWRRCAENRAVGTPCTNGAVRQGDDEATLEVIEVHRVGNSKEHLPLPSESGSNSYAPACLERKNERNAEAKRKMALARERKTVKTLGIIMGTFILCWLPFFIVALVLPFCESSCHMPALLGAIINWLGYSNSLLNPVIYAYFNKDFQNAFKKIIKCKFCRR
Method: In-Vitro inhibition of 5HT1A receptor binding
Radioactive-labelled ligand ^3 H-80H-DPAT is incubated with isolated cell-membrane fragments at 37° C. for a given period of time. Following completed incubation, the incubate is filtered through GF/F filters which are rinsed after filtration to remove unspecifically adhered radioactivity. As opposed to low-molecular compounds, membrane fragments are not rinsed through the filters, the radioactivity bound to the filters indicates the amount of ligand bound specifically as well as nonspecifically to the membranes.
Male Wistar rats, 150-200 g are decapitated, and frontal cortex (approx. 200 mg) and hippocampus (approx. 70 mg) homogenized in 2×10 ml ice-cold DPAT buffer for 20 sec. applying polytron kinematica setting 6. Centrifuged at 20,000 rpm for 10 min. at 4° C. The pellet is transferred to 2×10 ml ice-cold DPAT buffer, homogenized for 20 sec. and preincubated for 10 min. at 37° C. Centrifuged at 20,000 rpm for 10 min. at 4° C. Final pellet added to 125×vol. of same buffer with 10 μM paragylin added (ex. 270 mg tissue in 33.75 ml DPAT buffer containing paragylin). Prepared fresh every day. Use within 30 minutes.
1,250 μl tissue 25 μl ^3 H-80H-DPAT (1 nM) 25 μl test substance/H2 O/blind serotonin (10 μM)
Incubation at 37° C. for 10 min.--at 10 sec. intervals. To the tubes is added 10 ml ice-cold 0.9% NaCl. Filtration through GF/F filters (use gloves). This procedure is repeated. Filters are placed in counting vials and 4 ml optiflow added (prepare in fume cupboard, use gloves). Counted at window 0-19 of the beta- counter (Pachard). Note that receptor box and lid are rinsed thoroughly in H2 O after use to avoid contamination. Further the analytical site is cleaned carefully every day.
Dissolved in H2 O, EtOH, MeOH or DMSO and further diluted in H2 O. The DPAT binding will stand concentrations of up to approx. 5% of these solvents without affecting the binding. Most stock solutions are stable at 4° C. Attention should, however, be paid to any precipitation, change in colour etc. Test-substance dilutions are always prepared fresh every day. When weighing out test substances, it is attempted to weigh out approx. 1 mg of substance. Less than 0.8 mg must never be weighed out and only infrequently more than 2 mg (for economy reasons) dependent, however on conc./assay.

[2] = target: Alpha1 receptor; test: In-Vitro Inhibition of Alpha1-Receptor Binding (3H-Prazosin); design: species or system rat (male Wistar); settings: 3H-Prazosin 0.5 nM, rat cortex, 25° C., 30 min; read-out: Receptor binding IC50 α1
Method: In-Vitro Inhibition of Alpha1 -Receptor Binding, Radioactive-labelled ligand ^3 H-Prazosin is incubated with isolated cell-membrane fragments at 25° C. for a given period of time. Following completed incubation, the incubate is filtered through GF/B filters, which are rinsed following filtration to remove unspecifically adhered radioactivity. As opposed to low- molecular compounds, membrane fragments are not rinsed through the filters, the radioactivity bound to the filters indicates the amount of ligand bound specifically as well as nonspecifically to the membranes. The procedure is performed in ice bath. Polytron kinematica is rinsed with milli-Q-H2 O before and after use. Male Wistar rats, 150-200 g are decapitated, cortex is removed quickly and weighed (approx. 500 mg). Cortex is transferred to a centrifuging vial containing 10 ml ice-cold D2 buffer. Homogenization applying polytron kinematica (homogenizer) setting 6 for 20 sec. The homogenizer is rinsed with 10 ml D2 buffer in another centrifuging vial. The 10 ml rinsing buffer is added to the tissue vial. Centrifugation at 18,000 rpm for 12 min. at 4° C. This is repeated once. Final pellet is added to 400×vol. of same buffer. (Ex. 500 mg cortex in 200 ml D2 buffer). Can be stored for 30 min. at 0° C. 2,000 μl tissue 25 μl ^3 H-Prazosin (0.5 nM) 25 μl test substance/H2 O/blind Phentolamine (10 μM) Incubation for 30 min. at 25° C. 10 ml of ice-cold 0.9% NaCl is added to the tubes and filtered through GF/B filters (use gloves). This procedure is repeated. Filters are placed in counting vials and 4 ml opti-flour is added (perform in fume cupboard, use gloves). Counting is performed at window 0-19 of the betacounter (Pachard). […] Further, the analytical site is cleaned carefully every day after use. Dissolved in H2 O, EtOH, MeOH or DMSO and further diluted in H2 O. […] Most stock solutions are stable at 4° C. Attention should, however, be paid to any precipitation, change in colour etc. Test-substance dilutions are always prepared fresh every day. When weighing out test substances, it is attempted to weigh out approx. 1 mg of substance. Less than 0.8 mg must never be weighed out and only infrequently more than 2 mg (for economy reasons) dependent, however, on conc./ass.

[3] = test system: acetic acid-induced writhings in mice; test: Antagonism of Acetic Acid-Induced Writhings In Mice; format: in vivo, mouse (NMRI); settings: Mus musculus, sc; s.c. 30 min before acetic acid 0.5 per cent i.p.; 50 per cent protection
Method: Antagonism of Acetic Acid-Induced Writhings In Mice
In mice i.p. injection of acetic acid induces a writhing syndrome which is antagonized by analgesics (Siegmund et al., 1957; Eckhardt et al., 1957).
Acetic acid 0.5 per cent is injected i.p. (0.15 ml/10 g body weight) to 6 mice (NMRI, either sex weighing 20-25 g) pretreated with physiological saline (controls) and to 6 mice pretreated with test substance. In the controls acetic acid induces a syndrome characterized by contraction of abdomen, turning of trunk and extension of hind limbs. Saline and test substances are administered s.c. 30 min. before acetic acid. The number of writhings is counted 5-15 min. after injection of acetic acid.
The activity is expressed as per cent protection: [formula]
The effect of active substances is evaluated by a dose response curve, log dose on the abscissa, and per cent protection on the ordinate. The potency is expressed as the dose (ED50 in mg/kg giving 50 per cent protection against writhings.
This test is used as a screening test for analgesics. Additional results from other screening tests are required to exclude active anti-writhing substances without analgesic effect.

Row | SMILES | IC50 [1] [µM] | IC50 [2] [µM] | ED50 [3] [mg/kg]
1 | COc1cc(NC(=O)OCCCN2CCN(c3ccccc3Cl)CC2)cc(OC)c1OC.Cl [Example 3, 4-(2-Chlorophenyl)-1-[3-(3,4,5-trimethoxyphenylcarbamoyloxy)propyl]piperazine, hydrochloride] | > 0.3 | 0.045 | 12
2 | COc1cc(NC(=O)OCCCN2CCN(c3ccc(F)cc3)CC2)cc(OC)c1OC [Example 8, 4-(4-Fluorophenyl)-1-[3-(3,4,5-trimethoxyphenylcarbamoyloxy)propyl]piperazine, hydrochloride] | > 1 | 0.061 | –
3 | O=C(Nc1ccc2ncsc2c1)OCCCN1CCN(c2ccc(Cl)cc2)CC1 [Example 19, 4-(4-Chlorophenyl)-1-[3-(6-benzothiazolylcarbamoyloxy)propyl]piperazine, hydrochloride] | > 1 | 0.122 | –
4 | COc1ccc2cccc(N3CCN(CCCOC(=O)Nc4ccc5c(c4)OCO5)CC3)c2c1 [Example 34, 1-(7-Methoxy-1-naphthyl)-4-[3-(3,4-methylenedioxyphenylcarbamoyloxy)propyl]piperazine, HCl] | 0.0016 | 0.144 | –
